This assay deals with TBK1 (Homo sapiens (Human), UniProt Q9UHD2). As to the kind of experiment: TBK1 low ATP kinase assay (in vitro assay 1). In kind it is biochemical. The note with it: in vitro assay 1, read-out: TBK1 low ATP kinase assay IC50.
Chain of TBK1 (Q9UHD2 whole entry): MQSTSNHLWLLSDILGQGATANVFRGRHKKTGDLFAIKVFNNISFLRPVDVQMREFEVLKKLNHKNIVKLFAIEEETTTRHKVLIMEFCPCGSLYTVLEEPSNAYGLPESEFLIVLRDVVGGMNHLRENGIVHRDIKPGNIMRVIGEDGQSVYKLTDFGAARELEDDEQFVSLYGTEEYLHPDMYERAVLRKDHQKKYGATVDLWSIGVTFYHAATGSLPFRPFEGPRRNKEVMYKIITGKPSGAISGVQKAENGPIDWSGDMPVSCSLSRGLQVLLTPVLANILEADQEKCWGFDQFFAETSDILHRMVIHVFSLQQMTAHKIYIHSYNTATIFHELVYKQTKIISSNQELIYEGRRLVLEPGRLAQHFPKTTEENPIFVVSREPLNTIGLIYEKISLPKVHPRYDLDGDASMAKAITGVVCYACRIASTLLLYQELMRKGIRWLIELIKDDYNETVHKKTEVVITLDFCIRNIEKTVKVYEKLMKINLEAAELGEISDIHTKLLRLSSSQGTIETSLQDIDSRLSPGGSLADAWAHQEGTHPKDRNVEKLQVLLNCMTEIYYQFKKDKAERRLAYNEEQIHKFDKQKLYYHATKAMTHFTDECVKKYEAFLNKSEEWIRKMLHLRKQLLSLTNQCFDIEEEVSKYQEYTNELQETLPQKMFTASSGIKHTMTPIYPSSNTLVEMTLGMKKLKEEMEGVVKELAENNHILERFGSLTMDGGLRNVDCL

Consider `CC(c1ccnc(Nc2nc3ccc(-c4ccncn4)cc3[nH]2)c1)N1CCN(C(=O)C2CC2)CC1` (racemic) [Example 23.04.02, (rac)-cyclopropyl{4-[1-(2-{[6-(pyrimidin-4-yl)-1H-benzimidazol-2-yl]amino}pyridin-4-yl)ethyl]piperazin-1-yl}methanone], for which the IC50 (as a rule, the point on the concentration scale where inhibition reaches its midpoint) was 2.42 nM.
In the case of `COc1cncnc1-c1ccc2nc(Nc3cc(C(C)N4CCN(C(=O)C5CCC5)CC4)ccn3)[nH]c2c1` (single isomer, unassigned) [Example 35.03.04.A, cyclobutyl{4-[(1R or 1S)-1-(2-{[6-(5-methoxypyrimidin-4-yl)-1H-benzimidazol-2-yl]amino}pyridin-4-yl)ethyl]piperazin-1-yl}methanone] it was 8.38 nM.
In the case of `Cc1noc(-c2ccc3nc(Nc4cc(CN5CCN(C(=O)C(C)(C)O)CC5)ccn4)[nH]c3c2)n1` [Example 101.16, 2-hydroxy-2-methyl-1-{4-[(2-{[6-(3-methyl-1,2,4-oxadiazol-5-yl)-1H-benzimidazol-2-yl]amino}pyridin-4-yl)methyl]piperazin-1-yl}propan-1-one] it was 190 nM; in that of `O=C(C1CC1)N1CCN(Cc2ccnc(Nc3nc4ccc(-c5cncnc5)cc4[nH]3)c2)CC1` [Example 45.01.03, cyclopropyl{4-[(2-{[6-(pyrimidin-5-yl)-1H-benzimidazol-2-yl]amino}pyridin-4-yl)methyl]piperazin-1-yl}methanone], 205 nM.
For `Cc1noc(-c2ccc3nc(Nc4cc(CN5C[C@@H](C)N(C(=O)C6CC6)C[C@@H]5C)ccn4)[nH]c3c2)n1` [Example 16.02.04, cyclopropyl{(2R,5S)-2,5-dimethyl-4-[(2-{[6-(3-methyl-1,2,4-oxadiazol-5-yl)-1H-benzimidazol-2-yl]amino}pyridin-4-yl)methyl]piperazin-1-yl}methanone], the IC50 is 268 nM.
In the case of `Cc1noc(-c2ccc3nc(Nc4cc(CN5CCN(C(=O)C6CC6)C[C@H]5C)ccn4)[nH]c3c2)n1` [Example 16.03.04, cyclopropyl{(3R)-3-methyl-4-[(2-{[6-(3-methyl-1,2,4-oxadiazol-5-yl)-1H-benzimidazol-2-yl]amino}pyridin-4-yl)methyl]piperazin-1-yl}methanone] it was 54.6 nM; in that of `Cc1cc(-c2ccc3nc(Nc4cc(CN5CCN(C(=O)CC6CC6)CC5)ccn4)[nH]c3c2)ncn1` [Example 30.01.03, 2-cyclopropyl-1-{4-[(2-{[6-(6-methylpyrimidin-4-yl)-1H-benzimidazol-2-yl]amino}pyridin-4-yl)methyl]piperazin-1-yl}ethanone], 16.9 nM; in that of `Cn1cc(-c2ccc3nc(Nc4cc(CN5CCN(C(=O)CC6CC6)CC5)ccn4)[nH]c3c2)cn1` [Example 37.02, 2-cyclopropyl-1-{4-[(2-{[6-(1-methyl-1H-pyrazol-4-yl)-1H-benzimidazol-2-yl]amino}pyridin-4-yl)methyl]piperazin-1-yl}ethanone], 62.5 nM.
To `O=C(CC(F)(F)F)N1CCN(Cc2ccnc(Nc3nc4ccc(-c5ccnc(N6CCCC6)n5)cc4[nH]3)c2)CC1` [Example 177.02, 3,3,3-trifluoro-1-(4-{[2-({6-[2-(pyrrolidin-1-yl)pyrimidin-4-yl]-1H-benzimidazol-2-yl}amino)pyridin-4-yl]methyl}piperazin-1-yl)propan-1-one] belongs 74.5 nM; to `Cc1cc(-c2ccc3nc(Nc4cc(CN5CCN(C(=O)OC(C)(C)C)CC5)ccn4)[nH]c3c2)ccn1` [Example 01.01, tert-butyl 4-[(2-{[6-(2-methylpyridin-4-yl)-1H-benzimidazol-2-yl]amino}pyridin-4-yl)methyl]piperazine-1-carboxylate], 150 nM.
Take `CC(c1ccnc(Nc2nc3ccc(-c4ccncn4)cc3[nH]2)c1)N1CCN(C(=O)CC(F)(F)F)CC1` (racemic) [Example 23.04.03, (rac)-3,3,3-trifluoro-1-{4-[1-(2-{[6-(pyrimidin-4-yl)-1H-benzimidazol-2-yl]amino}pyridin-4-yl)ethyl]piperazin-1-yl}propan-1-one]: the IC50 is 2.47 nM.

These data come from patent publication US10894784B2, “Heteroarylbenzimidazole compounds” (BAYER PHARMA AKTIENGESELLSCHAFT, priority 2015, dated 2021).
